# Assay results as given in US20260014146A1, “CDK2 INHIBITORS AND METHODS OF USING THE SAME” (Cedilla Therapeutics, Inc., priority 2022, published 2026).
# What was measured:
# CDK2/Cyclin E1 = CDK2/Cyclin E1 (Homo sapiens (Human), UniProt P24941); experiment: Caliper LabChip EZ Reader mobility shift assay; assay type: biochemical; details: 2.5 nM CDK2/Cyclin E1 (14-475), 100 μM ATP, 1.5 μM fluorescent peptide; read-out: Caliper Assay (CDK2/CCNE1): IC50
# Description: Inhibition of CDK2/Cyclin E1 activity in the presence of compounds of the present disclosure was evaluated using a Caliper LabChip® EZ Reader mobility shift assay. In the assay, activated CDK2/Cyclin E1 catalyzes the phosphorylation of a fluorescently tagged peptide 5-FAM-QSPKKG-CONH2 (PerkinElmer, FL Peptide 18) which induces a difference in capillary electrophoresis mobility. The peptide substrate and product were measured, and the conversion ratio was used to determine the inhibition (as % activity and IC50 values) of CDK2/Cyclin E1. Reactions contained 50 mM HEPES pH 7.5, 10 mM MgCl2, 1 mM EDTA, 2 mM DTT, 0.01% Brij35, 0.5 mg/mL BSA, 0.1% DMSO, 2.5 nM CDK2/Cyclin E1 (14-475), 100 μM ATP, and 1.5 μM fluorescent peptide substrate.
# Dose titrations of inhibitors in 100% DMSO were combined with 3.25 nM CDK2/Cyclin E1 (14-475) and 130 μM of ATP in reaction buffer. The mixtures were incubated for 30 minutes before the addition of fluorescent peptide substrate to initiate the kinase reaction. The final conditions were 2.5 nM CDK2/Cyclin E1 (14-475), 100 μM ATP, and 1.5 μM fluorescent peptide. The reactions were stopped after 100 minutes with the addition of EDTA (6 mM final EDTA concentration). The stopped reactions were analyzed on a Caliper LabChip® EZ Reader II. The conversion ratios were normalized to yield % activity, plotted against compound concentration, and fit to a four-parameter equation to determine the IC50 for each compound.
# [1] = test system: Kuramochi cells labeled with mApple-H2B; experiment: IncuCyte cell proliferation assay; assay type: cell-based; details: Kuramochi RB-WT, cell count 0 to 72 hours; method calls it GI50
# Description: IncuCyte® assay was used to measure the effect of disclosed compounds on cell proliferation. Fluorescent microscopy images of cells were taken immediately after compound treatment and 72 hours later. Image analysis software was used to obtain cell counts as a function of compound concentration. Kuramochi cells labeled with mApple-H2B were seeded on 384-well assay-ready plates. Plates were placed in an IncuCyte® (Sartorius) and scanned at 0 and 72 hours. IncuCyte® software was used to count the number of fluorescent nuclei in each well. The fold change in cell count from 0 to 72 hours in wells treated with increasing compounds concentrations (10 pts, 1/2 log dilution, 20 μM top concentration) was normalized to DMSO control wells. The normalized cell counts were fit with dose response curves and a GI50 was calculated.
Structure (SMILES),IC50 (CDK2/Cyclin E1) [µM],IC50 [1] [µM]
"C[C@@H](OCC1CCC(F)(F)CC1)[C@H](NC(=O)[C@@H]1CN(C(=O)c2cncs2)CC12CN(c1cc[nH]n1)C2)C(C)(C)O [Compound I-6, (S)-N-((3S,4R)-4-((4,4-difluorocyclohexyl)methoxy)-2-hydroxy-2-methylpentan-3-yl)-2-(1H-pyrazol-3-yl)-6-(thiazole-5-carbonyl)-2,6-diazaspiro[3.4]octane-8-carboxamide]",> 10,> 20
"C[C@@H](OCC12CCC(CC1)OC2)[C@H](NC(=O)[C@@H]1CN(c2ncnc3ncsc23)CC12CN(C(=O)[C@H]1CC1(C)C)C2)C(=O)N1CCC(OC(F)(F)F)CC1 [Compound I-29, (S)-N-((2S,3R)-3-((2-oxabicyclo[2.2.2]octan-4-yl)methoxy)-1-oxo-1-(4-(trifluoromethoxy)piperidin-1-yl)butan-2-yl)-2-((S)-2,2-dimethylcyclopropane-1-carbonyl)-6-(thiazolo[4,5-d]pyrimidin-7-yl)-2,6-diazaspiro[3.4]octane-8-carboxamide]",0.01 to 0.1,5 to 20
"C[C@@H](OCC12CCC(CC1)OC2)[C@H](NC(=O)[C@@H]1CN(C(=O)c2cncs2)CC12CN(c1cc[nH]n1)C2)C(C)(C)O [Compound I-31, (S)-N-((3S,4R)-4-(2-oxabicyclo[2.2.2]octan-4-ylmethoxy)-2-hydroxy-2-methylpentan-3-yl)-2-(1H-pyrazol-3-yl)-6-(thiazole-5-carbonyl)-2,6-diazaspiro[3.4]octane-8-carboxamide]",> 10,
"COC[C@H]1CCCN(C(=O)[C@@H](NC(=O)[C@@H]2CN(c3cc(C(F)(F)F)cc4ncsc34)CC23CN(C(=O)[C@H]2CC2(C)C)C3)[C@@H](C)OCC23CCC(CC2)OC3)C1 [Compound I-21, (S)-N-((2S,3R)-3-(2-oxabicyclo[2.2.2]octan-4-ylmethoxy)-1-((S)-3-(methoxymethyl)piperidin-1-yl)-1-oxobutan-2-yl)-2-((S)-2,2-dimethylcyclopropanecarbonyl)-6-(5-(trifluoromethyl)benzo[d]thiazol-7-yl)-2,6-diazaspiro[3.4]octane-8-carboxamide]",> 10,5 to 20
"COC[C@H]1CCCN(C(=O)[C@@H](NC(=O)[C@@H]2CN(c3cc(O)cc4ncsc34)CC23CN(C(=O)[C@H]2CC2(C)C)C3)[C@@H](C)OCC23CCC(CC2)OC3)C1 [Compound I-20, (S)-N-((2S,3R)-3-(2-oxabicyclo[2.2.2]octan-4-ylmethoxy)-1-((S)-3-(methoxymethyl)piperidin-1-yl)-1-oxobutan-2-yl)-2-((S)-2,2-dimethylcyclopropanecarbonyl)-6-(5-hydroxybenzo[d]thiazol-7-yl)-2,6-diazaspiro[3.4]octane-8-carboxamide]",0.1 to 1,5 to 20
"COC[C@H]1CCCN(C(=O)C(NC(=O)[C@@H]2CN(c3nc(C(F)(F)F)cs3)CC23CN(C(=O)[C@H]2CC2(C)C)C3)[C@@H](C)OCC23CCC(CC2)OC3)C1 (stereo in doubt) [Compound I-17, (S)-N-((2S,3R)-3-(2-oxabicyclo[2.2.2]octan-4-ylmethoxy)-1-((S)-3-(methoxymethyl)piperidin-1-yl)-1-oxobutan-2-yl)-2-((S)-2,2-dimethylcyclopropanecarbonyl)-6-(4-(trifluoromethyl)thiazol-2-yl)-2,6-diazaspiro[3.4]octane-8-carboxamide]",> 10,> 20
"COC[C@H]1CCCN(C(=O)[C@@H](NC(=O)[C@H]2CN(c3nc(C(F)(F)F)cs3)CC23CN(C(=O)[C@H]2CC2(C)C)C3)[C@@H](C)OCC23CCC(CC2)OC3)C1 [I-17 2nd, N-((2S,3R)-3-(2-oxabicyclo[2.2.2]octan-4-ylmethoxy)-1-((S)-3-(methoxymethyl)piperidin-1-yl)-1-oxobutan-2-yl)-2-((S)-2,2-dimethylcyclopropanecarbonyl)-6-(4-(trifluoromethyl)thiazol-2-yl)-2,6-diazaspiro[3.4]octane-8-carboxamide]",> 10,> 20
"C[C@@H](OCC1(CO)CC=CCC1)C(NC(=O)[C@@H]1CN(c2ncnc3ncsc23)CC12CN(C(=O)[C@H]1CC1(C)C)C2)C(=O)N1CCC(OC(F)(F)F)CC1 (stereo partly drawn) [Compound I-35, (8S)-2-((S)-2,2-dimethylcyclopropane-1-carbonyl)-N-((2S,3R)-3-((1-(hydroxymethyl)cyclohex-3-en-1-yl)methoxy)-1-oxo-1-(4-(trifluoromethoxy)piperidin-1-yl)butan-2-yl)-6-(thiazolo[4,5-d]pyrimidin-7-yl)-2,6-diazaspiro[3.4]octane-8-carboxamide]",0.01 to 0.1,> 20
"C[C@@H](OCC12CCC(CC1)OC2)[C@H](NC(=O)[C@@H]1CN(c2nccc3ncsc23)CC12CN(C(=O)[C@H]1CC1(C)C)C2)C(=O)N(C)C [Compound I-23, (S)-N-((2S,3R)-3-(2-oxabicyclo[2.2.2]octan-4-ylmethoxy)-1-(dimethylamino)-1-oxobutan-2-yl)-2-((S)-2,2-dimethylcyclopropanecarbonyl)-6-(thiazolo[5,4-c]pyridin-4-yl)-2,6-diazaspiro[3.4]octane-8-carboxamide]",1 to 10,> 20
"CC(C)(O)C(NC(=O)[C@@H]1CN(C(=O)c2cncs2)CC12CN(c1ncco1)C2)c1cccc(C2CCOCC2)n1 (stereo partly drawn) [Compound I-5, (8S)—N-(2-hydroxy-2-methyl-1-(6-(tetrahydro-2H-pyran-4-yl) 239yridine-2-yl)propyl)-2-(oxazol-2-yl)-6-(thiazole-5-carbonyl)-2,6-diazaspiro[3.4]octane-8-carboxamide]",> 10,> 20
"C[C@@H](OCC1(CO)CC=CCC1)[C@H](NC(=O)[C@@H]1CN(c2ncnc3ncsc23)CC12CN(C(=O)[C@H]1CC1(C)C)C2)C(=O)N1CC2(CCOCC2)C1 (stereo partly drawn) [Compound I-37, (8S)-2-((S)-2,2-dimethylcyclopropane-1-carbonyl)-N-((2S,3R)-3-((1-(hydroxymethyl)cyclohex-3-en-1-yl)methoxy)-1-oxo-1-(7-oxa-2-azaspiro[3.5]nonan-2-yl)butan-2-yl)-6-(thiazolo[4,5-d]pyrimidin-7-yl)-2,6-diazaspiro[3.4]octane-8-carboxamide]",0.1 to 1,> 20
"COC[C@H]1CCCN(C(=O)[C@@H](NC(=O)[C@@H]2CN(c3n[nH]c4ncccc34)CC23CN(C(=O)[C@H]2CC2(C)C)C3)[C@@H](C)OCC23CCC(CC2)OC3)C1 [Compound I-24, (S)-N-((2S,3R)-3-(2-oxabicyclo[2.2.2]octan-4-ylmethoxy)-1-((S)-3-(methoxymethyl)piperidin-1-yl)-1-oxobutan-2-yl)-2-((S)-2,2-dimethylcyclopropanecarbonyl)-6-(1H-pyrazolo[3,4-b]pyridin-3-yl)-2,6-diazaspiro[3.4]octane-8-carboxamide]",> 10,
"C[C@@H](OCC12CCC(CC1)OC2)C(NC(=O)[C@@H]1CN(c2cccc3ncsc23)CC12CN(C(=O)[C@H]1CC1(C)C)C2)C(C)(C)O (stereo partly drawn) [Compound I-16, (S)-N-((3S,4R)-4-((2-oxabicyclo[2.2.2]octan-4-yl)methoxy)-2-hydroxy-2-methylpentan-3-yl)-6-(benzo[d]thiazol-7-yl)-2-((S)-2,2-dimethylcyclopropane-1-carbonyl)-2,6-diazaspiro[3.4]octane-8-carboxamide]",> 10,
